Experimental data taken from PMC4639830, “Inhibition of DYRK1A and GSK3B induces human β-cell proliferation” (Nature Communications, 2015).

How the values were obtained:
Test in all cases: Kinase profiling
Type in all cases: biochemical
AKT3 = target: T1, AKT3 (Homo sapiens, UniProt Q9Y243); details: Conc 1000 nM; read-out: Percent inhibition, AKT3
T1 construct: purchased Ambit KINOMEscan
Source text: (§1) ; Fig. 5a; Supplementary Table 1). We focused on Dyrk1a because other kinases inhibited by aminopyrazine compounds were not highly expressed in β-cells and because Dyrk1a was known to inhibit the NFAT pathway that was previously implicated in β-cell proliferation. We used molecular modelling to dock the aminopyrazine compounds into the published structure of Dyrk1a (protein databank accession code 2vx3.pdb; Fig. 5b).

ALK = target: T2, ALK (Homo sapiens, UniProt Q9UM73); details: read-out: Percent inhibition, ALK; for inhibition at 1 µM: Conc 1000 nM
T2 construct: purchased Ambit KINOMEscan
T2 sequence (Q9UM73 19-1620): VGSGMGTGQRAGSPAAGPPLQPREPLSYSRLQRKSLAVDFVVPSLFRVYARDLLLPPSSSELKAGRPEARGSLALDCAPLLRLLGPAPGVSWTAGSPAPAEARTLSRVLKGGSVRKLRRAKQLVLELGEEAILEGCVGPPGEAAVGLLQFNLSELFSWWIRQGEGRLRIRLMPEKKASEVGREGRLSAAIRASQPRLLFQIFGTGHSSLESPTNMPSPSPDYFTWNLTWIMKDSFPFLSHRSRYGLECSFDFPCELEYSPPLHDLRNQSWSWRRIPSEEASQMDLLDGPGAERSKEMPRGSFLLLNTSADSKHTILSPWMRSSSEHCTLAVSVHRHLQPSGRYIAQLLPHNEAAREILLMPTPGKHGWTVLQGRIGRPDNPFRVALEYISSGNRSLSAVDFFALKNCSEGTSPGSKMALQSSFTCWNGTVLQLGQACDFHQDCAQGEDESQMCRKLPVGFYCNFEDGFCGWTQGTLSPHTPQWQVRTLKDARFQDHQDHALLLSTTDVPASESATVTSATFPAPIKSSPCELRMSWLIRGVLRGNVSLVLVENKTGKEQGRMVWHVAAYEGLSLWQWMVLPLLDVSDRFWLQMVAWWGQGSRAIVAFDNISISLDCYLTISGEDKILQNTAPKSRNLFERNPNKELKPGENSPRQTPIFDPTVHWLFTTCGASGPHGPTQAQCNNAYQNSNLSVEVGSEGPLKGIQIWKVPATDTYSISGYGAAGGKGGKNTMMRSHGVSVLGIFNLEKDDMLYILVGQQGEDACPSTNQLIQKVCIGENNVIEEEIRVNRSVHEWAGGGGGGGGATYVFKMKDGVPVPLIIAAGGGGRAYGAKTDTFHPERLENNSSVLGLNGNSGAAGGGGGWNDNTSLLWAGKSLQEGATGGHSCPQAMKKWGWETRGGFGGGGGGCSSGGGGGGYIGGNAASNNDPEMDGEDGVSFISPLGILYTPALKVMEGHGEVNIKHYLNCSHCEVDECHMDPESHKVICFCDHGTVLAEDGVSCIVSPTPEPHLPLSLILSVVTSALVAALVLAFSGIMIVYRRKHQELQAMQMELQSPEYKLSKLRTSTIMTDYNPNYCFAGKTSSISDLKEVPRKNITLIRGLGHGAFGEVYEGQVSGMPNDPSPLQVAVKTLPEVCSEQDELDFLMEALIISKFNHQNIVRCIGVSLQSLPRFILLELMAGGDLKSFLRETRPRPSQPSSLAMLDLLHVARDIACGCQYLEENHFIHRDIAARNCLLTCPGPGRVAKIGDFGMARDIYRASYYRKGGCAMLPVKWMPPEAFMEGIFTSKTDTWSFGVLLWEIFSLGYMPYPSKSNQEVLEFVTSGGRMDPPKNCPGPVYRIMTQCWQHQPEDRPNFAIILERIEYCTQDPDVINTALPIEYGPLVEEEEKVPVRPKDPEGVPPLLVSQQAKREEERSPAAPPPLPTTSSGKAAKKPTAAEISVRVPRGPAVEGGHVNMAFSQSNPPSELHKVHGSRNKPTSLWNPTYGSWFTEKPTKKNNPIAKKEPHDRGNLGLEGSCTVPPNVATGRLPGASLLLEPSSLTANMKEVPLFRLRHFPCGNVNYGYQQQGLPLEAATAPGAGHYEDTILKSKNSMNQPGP
Source text: as §1

Abl = target: T3, Abl (Homo sapiens, UniProt P00519); details: Conc 1000 nM; read-out: Percent inhibition, Abl
T3 construct: purchased Ambit KINOMEscan
Source text: as §1

BTK = target: T4, BTK (Homo sapiens, UniProt Q06187); details: Conc 1000 nM; read-out: Percent inhibition, BTK
T4 construct: purchased Ambit KINOMEscan
Source text: as §1

CHEK1 = target: T5, CHEK1 (Homo sapiens, UniProt O14757); details: Conc 1000 nM; read-out: Percent inhibition, CHEK1
T5 construct: purchased Ambit KINOMEscan
Source text: as §1

CK1a = target: T6, CK1a (Homo sapiens, UniProt P48729); details: Conc 1000 nM; read-out: Percent inhibition, CK1a
T6 construct: purchased Ambit KINOMEscan
Source text: as §1

CSK = target: T7, CSK (Homo sapiens, UniProt P41240); details: Conc 1000 nM; read-out: Percent inhibition, CSK
T7 construct: purchased Ambit KINOMEscan
Source text: as §1

EGFR = target: T8, EGFR (Homo sapiens, UniProt P00533); details: Conc 1000 nM; read-out: Percent inhibition, EGFR
T8 construct: purchased Ambit KINOMEscan
Source text: as §1

EphB3 = target: T9, EphB3 (Homo sapiens, UniProt P54753); details: Conc 1000 nM; read-out: Percent inhibition, EphB3
T9 construct: purchased Ambit KINOMEscan
Source text: as §1

FGFR3 = target: T10, FGFR3 (Homo sapiens, UniProt P22607); details: Conc 1000 nM; read-out: Percent inhibition, FGFR3
T10 construct: purchased Ambit KINOMEscan
Source text: as §1

FMS (CSF1R) = target: T11, FMS (CSF1R) (Homo sapiens, UniProt P07333); details: Conc 1000 nM; read-out: Percent inhibition, FMS (CSF1R)
T11 construct: purchased Ambit KINOMEscan
Source text: as §1

Flt-3 = target: T12, Flt-3 (Homo sapiens, UniProt P36888); details: read-out: Percent inhibition, Flt-3; for inhibition at 1 µM: Conc 1000 nM
T12 construct: purchased Ambit KINOMEscan
T12 sequence (P36888 27-993): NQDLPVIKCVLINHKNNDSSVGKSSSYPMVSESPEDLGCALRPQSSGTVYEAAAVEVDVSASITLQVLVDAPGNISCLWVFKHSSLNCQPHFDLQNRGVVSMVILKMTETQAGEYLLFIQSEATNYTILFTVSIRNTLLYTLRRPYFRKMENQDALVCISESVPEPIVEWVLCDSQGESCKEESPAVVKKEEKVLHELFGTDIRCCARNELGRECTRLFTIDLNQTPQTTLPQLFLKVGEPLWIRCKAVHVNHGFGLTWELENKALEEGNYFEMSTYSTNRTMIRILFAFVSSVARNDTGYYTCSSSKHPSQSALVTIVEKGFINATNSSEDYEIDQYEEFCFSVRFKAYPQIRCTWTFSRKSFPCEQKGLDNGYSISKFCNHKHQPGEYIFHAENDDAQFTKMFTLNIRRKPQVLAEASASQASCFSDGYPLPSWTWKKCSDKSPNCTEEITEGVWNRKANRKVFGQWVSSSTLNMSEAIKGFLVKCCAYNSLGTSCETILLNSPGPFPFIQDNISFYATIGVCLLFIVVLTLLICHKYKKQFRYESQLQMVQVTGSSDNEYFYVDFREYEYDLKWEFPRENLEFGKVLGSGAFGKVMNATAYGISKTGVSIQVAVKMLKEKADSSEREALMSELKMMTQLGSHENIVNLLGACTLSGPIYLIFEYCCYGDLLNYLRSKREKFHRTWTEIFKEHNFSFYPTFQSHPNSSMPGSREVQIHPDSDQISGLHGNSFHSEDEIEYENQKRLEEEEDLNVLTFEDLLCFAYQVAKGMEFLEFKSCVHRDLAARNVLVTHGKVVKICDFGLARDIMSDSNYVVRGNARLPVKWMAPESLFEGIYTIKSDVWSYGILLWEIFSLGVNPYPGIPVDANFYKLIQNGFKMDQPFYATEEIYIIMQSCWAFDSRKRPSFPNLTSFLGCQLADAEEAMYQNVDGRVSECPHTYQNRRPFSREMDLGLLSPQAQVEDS
Source text: as §1

JAK2 = target: T13, JAK2 (Homo sapiens, UniProt O60674); details: read-out: Percent inhibition, JAK2; for inhibition at 1 µM: Conc 1000 nM
T13 construct: purchased Ambit KINOMEscan
T13 sequence (O60674 whole entry): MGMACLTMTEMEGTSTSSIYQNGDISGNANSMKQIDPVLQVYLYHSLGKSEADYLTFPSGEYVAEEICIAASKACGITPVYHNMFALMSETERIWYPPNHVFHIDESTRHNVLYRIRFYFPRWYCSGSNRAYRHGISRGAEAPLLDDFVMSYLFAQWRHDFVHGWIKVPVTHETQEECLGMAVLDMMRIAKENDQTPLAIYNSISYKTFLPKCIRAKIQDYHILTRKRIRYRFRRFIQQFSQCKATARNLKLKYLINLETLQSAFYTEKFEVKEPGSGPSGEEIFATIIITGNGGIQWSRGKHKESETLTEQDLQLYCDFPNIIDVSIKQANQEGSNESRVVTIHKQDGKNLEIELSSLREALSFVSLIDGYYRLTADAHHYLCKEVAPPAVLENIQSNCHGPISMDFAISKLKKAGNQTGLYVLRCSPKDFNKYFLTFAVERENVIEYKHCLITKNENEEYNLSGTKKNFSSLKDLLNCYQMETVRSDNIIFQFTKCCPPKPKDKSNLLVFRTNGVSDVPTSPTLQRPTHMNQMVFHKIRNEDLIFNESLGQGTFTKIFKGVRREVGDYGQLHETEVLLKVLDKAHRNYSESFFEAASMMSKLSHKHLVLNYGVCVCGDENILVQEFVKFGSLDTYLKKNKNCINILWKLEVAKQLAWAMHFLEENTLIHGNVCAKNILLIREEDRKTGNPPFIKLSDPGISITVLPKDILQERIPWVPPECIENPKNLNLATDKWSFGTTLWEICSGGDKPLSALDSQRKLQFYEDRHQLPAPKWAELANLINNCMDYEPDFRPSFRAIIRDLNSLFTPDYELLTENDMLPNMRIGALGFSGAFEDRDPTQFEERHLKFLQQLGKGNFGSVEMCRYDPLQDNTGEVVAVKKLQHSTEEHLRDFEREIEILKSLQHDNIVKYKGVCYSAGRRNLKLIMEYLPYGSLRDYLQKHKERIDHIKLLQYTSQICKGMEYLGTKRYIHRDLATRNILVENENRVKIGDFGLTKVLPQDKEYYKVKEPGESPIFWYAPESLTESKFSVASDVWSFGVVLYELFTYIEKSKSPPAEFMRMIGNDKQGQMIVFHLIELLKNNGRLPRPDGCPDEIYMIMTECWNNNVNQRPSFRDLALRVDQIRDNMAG
Source text: as §1

JNK2 = target: T14, JNK2 (Homo sapiens, UniProt P45984); details: Conc 1000 nM; read-out: Percent inhibition, JNK2
T14 construct: purchased Ambit KINOMEscan
Source text: as §1

KDR (VEGFR2, FLK1) = target: T15, KDR (VEGFR2, FLK1) (Homo sapiens, UniProt P35968); details: read-out: Percent inhibition, KDR (VEGFR2, FLK1); for inhibition at 1 µM: Conc 1000 nM
T15 construct: purchased Ambit KINOMEscan
T15 sequence (P35968 20-1356): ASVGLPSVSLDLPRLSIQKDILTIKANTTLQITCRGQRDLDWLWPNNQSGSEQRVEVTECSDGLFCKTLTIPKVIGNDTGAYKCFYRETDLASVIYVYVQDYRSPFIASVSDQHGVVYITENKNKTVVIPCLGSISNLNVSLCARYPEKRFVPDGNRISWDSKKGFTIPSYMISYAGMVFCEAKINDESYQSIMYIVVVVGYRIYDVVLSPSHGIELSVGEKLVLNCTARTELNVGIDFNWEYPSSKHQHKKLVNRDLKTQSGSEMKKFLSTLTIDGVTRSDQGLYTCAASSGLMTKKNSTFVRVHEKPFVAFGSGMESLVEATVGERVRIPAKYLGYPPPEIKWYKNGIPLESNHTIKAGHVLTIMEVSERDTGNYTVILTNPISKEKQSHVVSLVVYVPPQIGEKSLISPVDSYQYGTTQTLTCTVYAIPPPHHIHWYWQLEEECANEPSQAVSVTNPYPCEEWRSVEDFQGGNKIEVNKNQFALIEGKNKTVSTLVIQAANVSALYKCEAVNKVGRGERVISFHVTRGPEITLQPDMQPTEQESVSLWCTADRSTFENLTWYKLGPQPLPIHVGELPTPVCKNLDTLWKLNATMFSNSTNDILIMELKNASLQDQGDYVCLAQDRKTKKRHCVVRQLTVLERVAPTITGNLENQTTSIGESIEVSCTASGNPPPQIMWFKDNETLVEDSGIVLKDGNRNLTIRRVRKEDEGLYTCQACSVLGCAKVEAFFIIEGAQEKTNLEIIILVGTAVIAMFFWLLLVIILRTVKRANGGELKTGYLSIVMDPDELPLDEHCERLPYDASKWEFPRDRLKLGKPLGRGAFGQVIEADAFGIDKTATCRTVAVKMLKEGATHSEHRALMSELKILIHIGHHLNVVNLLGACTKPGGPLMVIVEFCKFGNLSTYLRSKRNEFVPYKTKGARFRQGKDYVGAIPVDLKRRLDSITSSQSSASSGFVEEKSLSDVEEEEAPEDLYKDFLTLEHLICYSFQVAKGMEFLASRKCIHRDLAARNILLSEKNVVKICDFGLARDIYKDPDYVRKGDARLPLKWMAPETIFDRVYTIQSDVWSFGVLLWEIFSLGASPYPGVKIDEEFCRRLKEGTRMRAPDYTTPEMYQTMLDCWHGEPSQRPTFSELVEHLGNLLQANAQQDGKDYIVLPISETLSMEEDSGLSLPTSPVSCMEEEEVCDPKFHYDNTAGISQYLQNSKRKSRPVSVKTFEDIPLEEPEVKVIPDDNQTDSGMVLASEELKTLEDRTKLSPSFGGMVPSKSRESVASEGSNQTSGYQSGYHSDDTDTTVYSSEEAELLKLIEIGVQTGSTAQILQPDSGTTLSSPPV
Source text: as §1

LynA = target: T16, LynA (Homo sapiens, UniProt P07948); details: Conc 1000 nM; read-out: Percent inhibition, LynA
T16 construct: purchased Ambit (KINOMEscan)
Source text: as §1

MAPK1 (ERK2) = target: T17, MAPK1 (ERK2) (Homo sapiens, UniProt P28482); details: Conc 1000 nM; read-out: Percent inhibition, MAPK1 (ERK2)
T17 construct: purchased Ambit (KINOMEscan)
Source text: as §1

MEK1 = target: T18, MEK1 (Homo sapiens, UniProt Q02750); details: Conc 1000 nM; read-out: Percent inhibition, MEK1
T18 construct: purchased Ambit (KINOMEscan)
Source text: as §1

ROCK1 = target: T19, ROCK1 (Homo sapiens, UniProt Q13464); details: Conc 1000 nM; read-out: Percent inhibition, ROCK1
T19 construct: purchased Ambit (KINOMEscan)
Source text: as §1

TRKA (NTRK1) = target: T20, TRKA (NTRK1) (Homo sapiens, UniProt P04629); details: read-out: Percent inhibition, TRKA (NTRK1); for inhibition at 1 µM: Conc 1000 nM
T20 construct: purchased Ambit (KINOMEscan)
T20 sequence (P04629 33-796): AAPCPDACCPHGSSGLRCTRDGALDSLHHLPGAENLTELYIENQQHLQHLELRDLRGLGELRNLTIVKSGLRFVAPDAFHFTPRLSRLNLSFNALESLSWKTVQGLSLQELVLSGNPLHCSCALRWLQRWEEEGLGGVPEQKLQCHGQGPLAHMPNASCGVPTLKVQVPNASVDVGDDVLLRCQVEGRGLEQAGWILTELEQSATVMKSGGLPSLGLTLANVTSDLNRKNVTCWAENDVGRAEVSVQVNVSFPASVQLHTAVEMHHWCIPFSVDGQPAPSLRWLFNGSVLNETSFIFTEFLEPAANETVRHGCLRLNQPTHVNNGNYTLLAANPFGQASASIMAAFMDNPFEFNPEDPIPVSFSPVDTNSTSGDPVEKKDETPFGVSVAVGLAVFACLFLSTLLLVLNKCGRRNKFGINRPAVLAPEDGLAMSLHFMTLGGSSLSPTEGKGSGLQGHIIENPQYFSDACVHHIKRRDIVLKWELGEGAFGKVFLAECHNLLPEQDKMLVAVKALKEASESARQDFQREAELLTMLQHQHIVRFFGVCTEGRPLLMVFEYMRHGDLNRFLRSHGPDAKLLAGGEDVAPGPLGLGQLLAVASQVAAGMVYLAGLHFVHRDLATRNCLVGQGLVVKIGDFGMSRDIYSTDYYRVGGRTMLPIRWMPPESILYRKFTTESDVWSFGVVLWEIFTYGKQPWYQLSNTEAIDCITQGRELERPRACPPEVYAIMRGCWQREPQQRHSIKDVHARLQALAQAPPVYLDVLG
Source text: as §1

bRAF = target: T21, bRAF (Homo sapiens, UniProt P15056); details: Conc 1000 nM; read-out: Percent inhibition, bRAF
T21 construct: purchased Ambit KINOMEscan
Source text: as §1

SMILES	inhibition at 1 µM (AKT3) [%]	inhibition at 1 µM (ALK) [%]	inhibition at 1 µM (Abl) [%]	inhibition at 1 µM (BTK) [%]	inhibition at 1 µM (CHEK1) [%]	inhibition at 1 µM (CK1a) [%]	inhibition at 1 µM (CSK) [%]	inhibition at 1 µM (EGFR) [%]	inhibition at 1 µM (EphB3) [%]	inhibition at 1 µM (FGFR3) [%]	inhibition at 1 µM (FMS (CSF1R)) [%]	inhibition at 1 µM (Flt-3) [%]	inhibition at 1 µM (JAK2) [%]	inhibition at 1 µM (JNK2) [%]	inhibition at 1 µM (KDR (VEGFR2, FLK1)) [%]	inhibition at 1 µM (LynA) [%]	inhibition at 1 µM (MAPK1 (ERK2)) [%]	inhibition at 1 µM (MEK1) [%]	inhibition at 1 µM (ROCK1) [%]	inhibition at 1 µM (TRKA (NTRK1)) [%]	also measured
CC(C)Oc1ccc(F)c(-c2cnc(N)c(C(=O)Nc3cnccc3N3CCC[C@@H](C(=O)O)C3)n2)c1 [GNF4877]	25	96	66	42	43	89	54	44	28	32	72	86	95	51	101	54	7	17	36	80	inhibition at 0.2 µM (ALK; Conc 200 nM): 35%; inhibition at 0.2 µM (Flt-3; Conc 200 nM): 36%; inhibition at 0.2 µM (JAK2; Conc 200 nM): 2%; inhibition at 0.2 µM (KDR (VEGFR2, FLK1); Conc 200 nM): 6%; inhibition at 0.2 µM (TRKA (NTRK1); Conc 200 nM): 19%; inhibition at 1 µM (bRAF): 20%
Nc1ncc(-c2ccccc2)nc1C(=O)Nc1cnccc1N1CCC(C(=O)O)CC1 [GNF7156]	7	71	90	83	12	42	29	71	12	60	78	64	92	68	102	56	6	50	9	92	inhibition at 1 µM (bRAF): 46%
